# Reference: US10066159B2, “Composite nanoparticles including a phthalic acid derivative” (3M INNOVATIVE PROPERTIES COMPANY, priority 2013, dated 2018)
# Assay: Solubility in toluene
# Assay type: physicochemical
# Settings: based on a total weight of the solution
row,solubility in toluene,SMILES
1,greater than 1 weight percent,"CCCCCCOc1ccc(C(=O)O)c(C(=O)O)c1 [Example 1, 4-hexyloxyphthalic Acid]"
2,greater than 1 weight percent,"CCCCCCCCOc1cc(C(=O)O)c(C(=O)O)cc1OCCCCCCCC [Example 2, 4,5-dioctyloxyphthalic Acid]"
